What all share (assay): growth of human tumour cells (NCI), 48 h
The test system of assay [1] is IGROV1 ovarian.
Assay [2] has as its system MOLT-4 leukemia.
Assay [3] relates to MDA-MB-435.
For assay [4], the system named is NCI-H522 lung.

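Assay format: 96-well plates, 48-hour exposure. At the TGI there is no net growth.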

As to `[N-]=[N+]=NC1=C(N=[N+]=[N-])c2cccc3cccc(c23)C1=O`, the TGI in assay [1], in assay [2], in assay [3] and in assay [4] was over 100 µM in each case.

In the case of `NC1=NC(=O)[C@H](CSCc2ccccc2)N1C(=O)OCc1ccccc1`, the TGI in assay [1], in assay [2], in assay [3] and in assay [4] was over 100 µM in each case.

As to `CN(Cc1cnc2nc(N)nc(N)c2n1)c1ccc(C(=O)NC2CCCCC2)cc1`, the TGI is 45.6 µM in assay [1] and over 100 µM in assay [2].

With `N#Cc1c(-c2ccccc2)cc(Nc2ccc(F)cc2)n2c1nc1ccccc12`, the TGI is over 100 µM in assay [1], over 100 µM in assay [2], over 100 µM in assay [3] and 5.83 µM in assay [4].

Regarding `c1cc(-c2ccc(Oc3ccc(-c4ccncc4)cc3)cc2)ccn1`, the TGI in assay [1] is over 100 µM; in assay [2], 41.5 µM; in assay [4], over 79.4 µM.

Consider `Cc1ccc2c(c1)C(=O)c1ccc(C)nc1C2=O`, for which the TGI in assay [1] is 83.2 µM; in assay [2], over 100 µM; in assay [3] it was 37.6 µM; in assay [4], 82.1 µM.

For the compound `COc1ccc2c(c1)CC[C@@H]1C2CC[C@]2(C)C(=O)N(C)C(=O)CC12` (stereo not given in full), the TGI in assay [1], in assay [2], in assay [3] and in assay [4] was over 100 µM in each case.

Consider `C=CCSC1=N/C(=C\c2ccco2)C(=O)N1CC=C`, for which the TGI in assay [1], in assay [2], in assay [3] and in assay [4] was over 100 µM throughout.

Turning to `COC(=O)C1(Cc2ccccc2C)Cc2ccc(C)cc2C1=O` (stereo not given), the TGI in assay [1] was over 100 µM; in assay [2] it was 74.7 µM; in assay [3] it was over 100 µM; in assay [4], 65.9 µM.

Consider `C/C(O)=C/c1nc2sc(C)c(C)c2c(=O)s1`, for which the TGI in assay [1] and in assay [3] was over 100 µM throughout.

For `COc1ccc(/C=N/Nc2nc3ccccc3c(=O)n2-c2ccccc2)cc1`, the TGI in assay [1], in assay [2], in assay [3] and in assay [4] was over 100 µM throughout.

As for `COC(=O)c1c(OC(C)=O)ccc2c1c1c(n2Cc2ccccc2)C(=O)c2ccccc2C1=O`, the TGI in assay [1] was 50.4 µM; in assay [2], over 100 µM; in assay [3] it was 35.8 µM; in assay [4] it was 46.6 µM.

On to `O=C(O)c1ccccc1/C=C1\Cc2ccc3c(c2C1=O)CCCC3`, for which the TGI in assay [1] is over 100 µM; in assay [2] it was 58.6 µM; in assay [3], over 100 µM; in assay [4], 65.9 µM.

For `O=C1c2ccccc2-c2ccc(N(Cc3ccc(Br)cc3)Cc3ccc(Br)cc3)cc21`, the TGI in assay [1], in assay [2], in assay [3] and in assay [4] was over 100 µM in each case.

Consider `Nc1nc(SCC(=O)c2ccccc2)nc2nc3c(c(-c4ccccc4)c12)CCCC3`, for which the TGI in assay [2], in assay [3] and in assay [4] was over 100 µM each time.

For the compound `CCOC(=O)CC(=O)Nc1c(C(=O)OCC)sc2nc(SC)nc(Nc3ccc(OC)c(OC)c3)c12`, the TGI was over 100 µM in assay [1], over 100 µM in assay [3] and 34.1 µM in assay [4].

Regarding `COc1cc(/C=C2\N=C(c3ccccc3)N(/N=C/c3cc4cc(C)ccc4nc3Cl)C2=O)ccc1O`, the figures for the TGI in assay [1], in assay [2] and in assay [3] were over 100 µM, 47.8 µM and 36.7 µM, respectively.

For the compound `O=C(CN1c2ccccc2Sc2ccccc21)n1cnc2ccccc21`, the TGI in assay [1], in assay [2] and in assay [3] was over 100 µM throughout.

Take `COc1cccc2c(=O)c3c(O)c4cc(N(C)C)ccc4c(OC(C)=O)c3oc12`: the TGI in assay [2] is 40.5 µM; in assay [3], 31.4 µM.

As for `CC1(C)O[C@@H]([C@@H](O)[C@H](O)C2SCCCS2)[C@@H](CO)O1`, the TGI in assay [1], in assay [2], in assay [3] and in assay [4] was over 100 µM throughout.

Take `c1ccc2c(-c3ccnc(-c4c[nH]c5ccccc45)n3)c[nH]c2c1`: the TGI is 14.7 µM in assay [1], 5.84 µM in assay [2] and over 100 µM in assay [3].

For `CCOP(=O)(OCC)OC1CC(n2cnc3c(N(CC)CC)ncnc32)OC1CO[Si](C)(C)C(C)(C)C` (stereo not given), the TGI is 32.3 µM in assay [1], 30.7 µM in assay [2], 31.7 µM in assay [3] and 27.6 µM in assay [4].

As to `CCOC(=O)/C(C#N)=N\Nc1ccc(-n2c(C)nc3ccc(Br)cc3c2=O)cc1`, the TGI in assay [1], in assay [2] and in assay [3] was over 100 µM each time.

For `C[N+](C)(C)C(Cc1c[nH]c(=S)[nH]1)C(=O)O` (stereo not given), the TGI in assay [1], in assay [2], in assay [3] and in assay [4] was over 100 µM throughout.

On to `O=C1NC(c2ccccc2)C1N(Cc1ccccc1)Cc1ccccc1` (stereo not given), for which the TGI in assay [1], in assay [2], in assay [3] and in assay [4] was over 100 µM in each case.

Regarding `CCOC(=O)c1c(C)n(-c2ccc(C)cc2)c2c1cc(O)c1[nH]c3c(c12)CCCC3`, the TGI in assay [1] was 33.9 µM; in assay [2], 22.4 µM; in assay [3], 62.2 µM; in assay [4], 27.4 µM.

`CC(C)(C)OC(=O)N1CCC[C@H]1CSC[C@@H]1CCCN1C(=O)OC(C)(C)C`: the TGI was over 100 µM in assay [1], 37.5 µM in assay [2], 46.7 µM in assay [3] and 56 µM in assay [4].

These data come from PubChem BioAssay (NCI).
